According to US8765779B2, “Tricyclic derivatives and their pharmaceutical use and compositions” (Cephalon, Inc., priority 2009, dated 2014):
Where a name gives a salt, the structure may show the parent alone.

molecular target: T1, human 5-HT6 receptor (Homo sapiens, UniProt P50406); test: Human 5-HT6 Receptor Binding Assay ([3H]LSD displacement, scintillation beads); settings: membranes of CHO-K1 cells with recombinant human 5-HT6, 4 nM [3H]LSD; Table 1, class symbols; read-out: h5-HT6 (Ki)
T1 construct: host or cells: CHO-K1 cells, stably transfected; membranes prepared in house
T1 sequence (P50406 whole entry): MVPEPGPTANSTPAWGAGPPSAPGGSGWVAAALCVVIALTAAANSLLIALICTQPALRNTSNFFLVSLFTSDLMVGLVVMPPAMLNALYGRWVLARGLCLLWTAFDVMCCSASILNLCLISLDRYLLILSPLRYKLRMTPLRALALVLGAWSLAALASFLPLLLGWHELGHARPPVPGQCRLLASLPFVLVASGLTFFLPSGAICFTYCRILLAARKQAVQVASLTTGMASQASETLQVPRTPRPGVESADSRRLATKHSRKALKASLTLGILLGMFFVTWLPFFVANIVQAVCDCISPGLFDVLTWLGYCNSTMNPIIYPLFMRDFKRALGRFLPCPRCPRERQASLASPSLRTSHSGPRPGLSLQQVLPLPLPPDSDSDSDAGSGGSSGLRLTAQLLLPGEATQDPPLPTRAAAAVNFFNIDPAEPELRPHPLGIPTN

O=S(=O)(c1ccccc1)c1ccc2c3c(oc2c1)CN(CCc1ccccc1)CC3 [Example 596] and O=S(=O)(c1cccc(Cl)c1)c1ccc2c3c(oc2c1)CN(Cc1ccccc1)CC3 [Example 603] cannot be ordered by Ki: less than 0.5 µM for the first, less than 0.5 µM for the second.

O=S(=O)(c1ccc2c(c1)OC1CNCCC21)c1ccccc1F (stereo not shown) [Example 146] and O=S(=O)(c1cccc(C(F)(F)F)c1)c1ccc2c(c1)OC1CNCCC21 (stereo not shown) [Example 161, 7-{[3-(trifluoromethyl)phenyl]sulfonyl}-1,2,3,4,4a,9a-hexahydro[1]benzofuro[2,3-c]pyridine] cannot be ordered by Ki: less than 0.5 µM for the first, less than 0.5 µM for the second.

CC12CCNCC1Oc1cc(S(=O)(=O)c3cncc(C(F)(F)F)c3)ccc12 (stereo not shown) [Example 431] and CC12CCNCC1Oc1cc(S(=O)(=O)c3cncc(F)c3)ccc12 (stereo not shown) [Example 429] cannot be ordered by Ki: greater than 1 µM for the first, greater than 1 µM for the second.

COCC1NCCc2c1oc1cc(S(=O)(=O)c3cccc(F)c3)ccc21 (stereo not shown) [Example 498] and CCOCC1NCCc2c1oc1cc(S(=O)(=O)c3cccc(F)c3)ccc21 (racemic) [Example 33, 1-(ethoxymethyl)-7-[(3-fluorophenyl)sulfonyl]-1,2,3,4-tetrahydro[1]benzofuro[2,3-c]pyridine] cannot be ordered by Ki: less than 0.5 µM for the first, less than 0.5 µM for the second.

Going from O=S(=O)(c1ccc(F)cc1)c1ccc2oc3c(c2c1)CCNC3 [Example 264] to N#Cc1ccc(S(=O)(=O)c2ccc3oc4c(c3c2)CCNC4)cc1 [Example 271], the Ki rises from less than 0.5 µM to greater than 1 µM. The first binds more tightly here.

O=S(=O)(c1ccc2c3c(oc2c1)[C@@]1(CCOC1)NCC3)c1cc(F)ccc1F (single isomer, unassigned) [Example 109] and O=S(=O)(c1cccc(F)c1)c1ccc2c3c(oc2c1)C1(CCOC1)NCC3 (single isomer, unassigned) [Example 52, 7-[(3-fluorophenyl)sulfonyl]-3,4,4′,5′-tetrahydro-2H-spiro[1-benzofuro[2,3-c]pyridine-1,3′-furan]] cannot be ordered by Ki: less than 0.5 µM for the first, less than 0.5 µM for the second.

First: Cc1c(S(=O)(=O)c2ccc3c4c(oc3c2)C(C)(C)NCC4)ccc[n+]1[O-] [Example 374]
Second: COc1c(F)cc(F)cc1S(=O)(=O)c1ccc2c3c(oc2c1)C(C)(C)NCC3 [Example 470]
The Ki of the first is higher: greater than 1 µM for the first, less than 0.5 µM for the second.

Ic1ccc2c3c([nH]c2c1)C1(CCCOC1)NCC3 (stereo not drawn) [Example 547, 7-Iodo-2,3,4,5′,6′,9-hexahydro-4′H-spiro[beta-carboline-1,3′-pyran]trifluoroacetate] and O=S(=O)(c1cccc(Cl)c1)c1ccc2c3c([nH]c2c1)C1(CCCOC1)NCC3 (single isomer, unassigned) [Example 316] cannot be ordered by Ki: less than 0.5 µM for the first, less than 0.5 µM for the second.

CC1(C)CNC2(CCOC2)c2oc3cc(S(=O)(=O)c4cccc(F)c4)ccc3c21 (racemic) [Example 46, 7-[(3-fluorophenyl)sulfonyl]-4,4-dimethyl-3,4,4′,5′-tetrahydro-2H-spiro[1-benzofuro[2,3-c]pyridine-1,3′-furan]] and CC1OCCC12NCCc1c2oc2cc(S(=O)(=O)c3cccc(F)c3)ccc12 (single isomer, unassigned) [Example 56, 7-[(3-Fluorophenyl)sulfonyl]-2′-methyl-3,4,4′,5′-tetrahydro-2H-spiro[1-benzofuro[2,3-c]pyridine-1,3′-furan]] cannot be ordered by Ki: less than 0.5 µM for the first, less than 0.5 µM for the second.

CC(C)c1ccc(S(=O)(=O)Oc2ccc3c(c2)C2CCNCC2O3)cc1 (stereo not shown) [Example 716] and O=S(=O)(Oc1ccc2c(c1)OC1CNCCC21)c1ccc(F)cc1 (stereo not shown) [Example 644] cannot be ordered by Ki: less than 0.5 µM for the first, less than 0.5 µM for the second.

CC12CCNCC1Oc1ccc(OS(=O)(=O)CCc3ccccc3)cc12 (stereo not shown) [Example 785] and CC12CCNCC1Oc1ccc(OS(=O)(=O)c3ccc(-c4ccon4)s3)cc12 (stereo not shown) [Example 781] cannot be ordered by Ki: greater than 1 µM for the first, greater than 1 µM for the second.

First: COCCCOc1cccc(S(=O)(=O)c2ccc3c(c2)OC2CNCCC32)c1 (stereo not shown) [Example 576]
Second: NC(=O)COc1cccc(S(=O)(=O)c2ccc3c(c2)OC2CNCCC32)c1 (stereo not shown) [Example 563]
The Ki of the first is lower: less than 0.5 µM for the first, greater than 1 µM for the second. The first binds more tightly here.

O=S(=O)(c1ccc(Cl)cc1)c1ccc2c(c1)C1CCNCC1O2 (stereo not shown) [Example 335] and O=[N+]([O-])c1ccc(S(=O)(=O)c2ccc3c(c2)C2CCNCC2O3)cc1 (stereo not shown) [Example 177] cannot be ordered by Ki: greater than 1 µM for the first, greater than 1 µM for the second.

CC(=O)N1CCC2c3cc(NS(=O)(=O)c4cc(C)ccc4C)ccc3OC2C1 (stereo not shown) [Example 815] and COc1ccc(S(=O)(=O)Nc2ccc3c(c2)C2CCNCC2O3)cc1 (stereo not shown) [Example 821] cannot be ordered by Ki: greater than 1 µM for the first, greater than 1 µM for the second.

O=S(=O)(c1cccc(F)c1)c1ccc2oc3c(c2c1)CCNC3CCBr (stereo not shown) [Example 514] and CC(=O)NCC1NCCc2c1oc1ccc(S(=O)(=O)c3cccc(F)c3)cc21 (stereo not shown) [Example 531, N-({6-[(3-fluorophenyl)sulfonyl]-1,2,3,4-tetrahydro[1]benzofuro[2,3-c]pyridin-1-yl}methyl)acetamide] cannot be ordered by Ki: less than 0.5 µM for the first, less than 0.5 µM for the second.

COc1cncc(S(=O)(=O)c2ccc3c4c(oc3c2)CNCC4(C)C)c1 [Example 451] and CC(C)Oc1cccc(S(=O)(=O)c2ccc3c4c(oc3c2)C(C)(C(F)F)NCC4)c1 (single isomer, unassigned) [Example 34, 1-(difluoromethyl)-1-methyl-7-{[3-(propan-2-yloxy)phenyl]sulfonyl}-1,2,3,4-tetrahydro[1]benzofuro[2,3-c]pyridine] cannot be ordered by Ki: less than 0.5 µM for the first, less than 0.5 µM for the second.

First: O=S(=O)(c1ccc(-c2ccccc2)cc1)c1ccc2c3c(oc2c1)CNCC3 [Example 228]
Second: [O-][S+](c1ccc2oc3c(c2c1)CCNC3)c1ccccc1-c1ccccc1 (stereo not shown) [Example 279]
The Ki of the first is higher: 0.5 to 1 µM for the first, less than 0.5 µM for the second. The second binds more tightly here.

CC1(CO)NCCc2c1oc1cc(S(=O)(=O)c3ccccc3)ccc21 (stereo not shown) [Example 525] and CN(C)C(=O)CC1(C)NCCc2c1oc1cc(S(=O)(=O)c3cccc(F)c3)ccc21 (single isomer, unassigned) [Example 51, 2-{7-[(3-fluorophenyl)sulfonyl]-1-methyl-1,2,3,4-tetrahydro[1]benzofuro[2,3-c]pyridin-1-yl}-N,N-dimethylacetamide] cannot be ordered by Ki: less than 0.5 µM for the first, less than 0.5 µM for the second.

Going from O=S(=O)(Nc1ccc2c(c1)C1CCNCC1O2)c1c(Cl)nc2sccn12 (stereo not shown) [Example 818] to O=S(=O)(Nc1cccc(F)c1F)c1ccc2c(c1)C1CCNCC1O2 (stereo not shown) [Example 842], the Ki rises from less than 0.5 µM to greater than 1 µM.

O=S(=O)(c1cccc(F)c1)c1ccc2oc3c(c2c1)CCNC3C1CCOCC1 (stereo not shown) [Example 520] and O=S(=O)(c1cccc(F)c1)c1ccc2c3c(oc2c1)C(C1CCOCC1)NCC3 (stereo not shown) [Example 496] cannot be ordered by Ki: less than 0.5 µM for the first, less than 0.5 µM for the second.

CCCCOc1cc(OC)cc(S(=O)(=O)c2ccc3c(c2)OC2CNCCC32)c1 (stereo not shown) [Example 587] and COc1cc(F)cc(S(=O)(=O)c2ccc3c(c2)OC2CNCCC32)c1 (stereo not shown) [Example 420] cannot be ordered by Ki: less than 0.5 µM for the first, less than 0.5 µM for the second.

COc1ccc(OC)c(S(=O)(=O)Oc2ccc3c(c2)C2CCNCC2O3)c1 (stereo not shown) [Example 731] and O=S(=O)(Oc1ccc2c(c1)OC1CNCCC21)c1cccc2nsnc12 (stereo not shown) [Example 669] cannot be ordered by Ki: less than 0.5 µM for the first, less than 0.5 µM for the second.

O=S(=O)(Oc1ccc2c(c1)OC1CNCCC21)c1cccc(C(F)(F)F)c1 (stereo not shown) [Example 675] and O=S(=O)(c1cccc(C(F)(F)F)c1)c1ccc2c(c1)OC1CNCCC21 (stereo not shown) [Example 167] cannot be ordered by Ki: less than 0.5 µM for the first, less than 0.5 µM for the second.

O=S(=O)(c1cc(F)cc(F)c1)c1ccc2c3c(oc2c1)C1(CCOC1)NCC3 (stereo not shown) [Example 305] and [O-][S+](c1cccc(C(F)(F)F)c1)c1ccc2c3c(oc2c1)C1(CCOCC1)NCC3 (stereo not shown) [Example 297] cannot be ordered by Ki: less than 0.5 µM for the first, less than 0.5 µM for the second.

First: CC(C)Oc1cccc(S(=O)(=O)c2ccc3c(c2)OC2CNCCC32)c1 (stereo not shown) [Example 165]
Second: COC(=O)c1cccc(S(=O)(=O)c2ccc3c(c2)OC2CNCCC32)c1 (stereo not shown) [Example 138]
The Ki of the first is lower: less than 0.5 µM for the first, greater than 1 µM for the second.

Compared with O=S(=O)(c1cc(F)cc(Cl)c1)c1ccc2c(c1)OC1CNCCC21 (stereo not shown) [Example 157], O=S(=O)(c1cncc(F)c1)c1ccc2c(c1)OC1CNCCC21 (stereo not shown) [Example 397] is higher in Ki: less than 0.5 µM for the first, greater than 1 µM for the second.

O=S(=O)(Cc1ccccc1)Oc1ccc2c(c1)OC1CNCCC21 (stereo not shown) [Example 637] and O=S(=O)(Nc1cccc2ccccc12)c1ccc2c(c1)C1CCNCC1O2 (stereo not shown) [Example 837] cannot be ordered by Ki: greater than 1 µM for the first, greater than 1 µM for the second.

CCCCC1NCCc2c1oc1cc(S(=O)(=O)c3cccc(Cl)c3)ccc21 (stereo not shown) [Example 499] and O=S(=O)(c1cccc(Cl)c1)c1ccc2oc3c(c2c1)CCNC3 [Example 243] cannot be ordered by Ki: less than 0.5 µM for the first, less than 0.5 µM for the second.

Cc1c(OCC2CCOCC2)cccc1S(=O)(=O)c1ccc2c(c1)OC1CNCCC21 (stereo not shown) [Example 582] and O=S(=O)(c1cc(F)cc(OCC(F)(F)F)c1)c1ccc2c(c1)OC1CNCCC21 (stereo not shown) [Example 403] cannot be ordered by Ki: less than 0.5 µM for the first, less than 0.5 µM for the second.

O=S(=O)(c1ccccc1)c1ccc2c(c1)OC1CN(C3CCCC3)CCC21 (stereo not shown) [Example 609] and O=S(=O)(c1cccc(Br)c1)c1ccc2oc3c(c2c1)CCNC3 [Example 263, 6-[(3-bromophenyl)sulfonyl]-1,2,3,4-tetrahydro[1]benzofuro[2,3-c]pyridine] cannot be ordered by Ki: less than 0.5 µM for the first, less than 0.5 µM for the second.

For CN(C)C(=O)c1c(F)cccc1S(=O)(=O)c1ccc2c3c(oc2c1)CNCC3 [Example 479], the Ki was greater than 1 µM.

same assay, conditions: membranes of CHO-K1 cells with recombinant human 5-HT6, 4 nM [3H]LSD; specific data; read-out: h5-HT6 (Ki)

Molecule O=S(=O)(c1cccc(C(F)(F)F)c1)c1ccc2c(c1)OC1CNCCC21 (stereo not shown) [Example 161, 7-{[3-(trifluoromethyl)phenyl]sulfonyl}-1,2,3,4,4a,9a-hexahydro[1]benzofuro[2,3-c]pyridine] has a Ki of 0.044 µM.

test system: not given; test: not given; settings: not given

Compared with O=S(=O)(c1cccc(OCc2cnccn2)c1)c1ccc2c(c1)OC1CNCCC21 (stereo not shown) (as salt: HCl) [Example 567], O=S(=O)(c1cccc(OCc2ccccn2)c1)c1ccc2c(c1)OC1CNCCC21 (stereo not shown) (as salt: HCl) [Example 562] is lower in melting point: 244 to 245 °C for the first, 179 to 182 °C for the second.

First: Cn1cnc(COc2cccc(S(=O)(=O)c3ccc4c(c3)OC3CNCCC43)c2)n1 (stereo not shown) (as salt: HCl) [Example 560]
Second: COc1cc(OC)cc(S(=O)(=O)c2ccc3c(c2)OC2CNCCC32C)c1 (stereo not shown) (as salt: HCl) [Example 487]
The melting point of the first is lower: 187 to 190 °C for the first, 283 to 285 °C for the second.

With CC(C)Oc1cccc(S(=O)(=O)c2ccc3c4c(oc3c2)C2(CCOCC2)NCC4)c1 (as salt: HCl) [Example 44, 7-{[3-(propan-2-yloxy)phenyl]sulfonyl}-2′,3,3′,4,5′,6′-hexahydro-2H-spiro[1-benzofuro[2,3-c]pyridine-1,4′-pyran]] the melting point was 250 °C (dec.).
